# According to patent publication US9995732B2, “Evaporative edge lithography of a liposomal drug microarray for cell migration assays” (FLORIDA STATE UNIVERSITY RESEARCH FOUNDATION, priority 2012, dated 2018):
# “Also recorded” adds a separate entry of the source.
# Key:
# HeLa cells [1] = experiment: Cell migration assay of HeLa cells on lipid multilayer films made by evaporative edge lithography; format: cell-based; settings: for migration rate of HeLa cells versus lipid thickness: lipid only; for migration rate of HeLa cells versus lipid thickness / collective cell migration compared to control group: 24 hours; for collective cell migration compared to control group: lipid encapsulated film; for HeLa cell migration (qualitative effect): drug delivered from encapsulated lipid films
# Method: Polydimethylsiloxane (PDMS) was cured from the SYLGARD® 184 silicone elastorner kit in a 60° C. oven overnight. PDMS strips of 15 mm long by 1 mm wide were placed between 500-800 μm apart on prepared glass coverslips before addition of lipid mixtures. 1,2-dioleoyl-3-trimethylammonium-propane (chloride salt) (DOTAP) and 1,2-dioleoyl-sn-glycerol-3-phosphoethanolamine-N-(lissamine rhodamine b sulfonyl) (ammonium salt) (DOPE-rhodamine) were purchased from Avanti Polar Lipids. To create lipid only solutions, DOTAP was mixed with 1 molar percent (mol %) DOPE-rhodamine in chloroform and dried overnight in a vacuum pump desiccators at 16 LM 15 Torr 7.4 PSIG to remove solvent. Ethanol (100%) was added to suspend dried lipid powder and 1 μl was deposited in each PDMS channel and the array was dried overnight in a vacuum to remove residual ethanol. A similar procedure was used for docetaxel encapsulated lipid solutions and the drug was dissolved in ethanol prior to adding to the dried lipid powder.
# The prepared assays on glass coverslips were placed individually wells of a 6-well plate for cell culture. For experiments, cells were seeded onto the prepared patterned glass coverslips by gently pipetting the cell suspension (2.5×10^5 cells/ml, 1 ml per coverslip) directly over each PDMS channel to allow cells to settle in them. The same method was used to seed other parts of the slide for use as control areas. Cells were allowed to settle for 1-2 hours before the PDMS barriers were removed to promote cell migration. After barrier removal, the coverslips were washed once with HBSS and replaced with fresh growth media. The cells were incubated over the patterned areas for up to 24 hours. Width of each cell strip was measure by hand with Nikon Elements 4.0 analysis software and the average migration rate for each strip was determined with the following equation: Migration Rate (μm/hr)=(WidthT=24 hrs−WidthT=0 hrs/24hrs.
# Width is the average width in micrometers (μm) of the cell monolayer measured either at the beginning of the experiment (T=0 hrs) or at the end (T=24 hours).
# The images for cell migration were captured on a Nikon Ti Eclipse inverted microscope with 4× or 10× objectives. Images for cell migration were taken after barrier removal and once again 24 hours after incubation period in phase contrast. Fluorescent filters used were B-2E/C and G-2E/C for red and green emitting dyes.
# (§1) A student t-test was performed to determine statistical significance between means of each sample (p-value <0.05). Error bars in figures are standard error of the mean for n samples. Characterizing the edge lipid films produced a total of n=20 samples and middle lipid film measurements produced n=10 samples. Cell density experiments were performed in triplicates (n=3). All samples for cell migration were taken in triplicate and replicated three times (n=9).
# HeLa cells [2] = experiment: Cell adhesion experiments on lipid films of different multilayer thickness; format: cell-based
# Method: Lipids were dissolved in ethanol and added to each channel in increasing amounts from 0.2 ng to 20 μg. Tests for cell attachment were performed by seeding HeLa cells into assay channel with varying amounts of lipid films. Cells were allowed to attach for two hours before washing the channels repeatedly 5 times. Prior to counting, cells were incubated with live-cell fluorescent dye (SYTO9, Invitrogen). The number of cells per square micron area (μm^2) that remained attached was counted manually. Experiments for cell adhesion where performed in three replicates. Values for cell density of each treatment were determined by averaging the number of cells in 5 random 100 μm^2 areas in a single image captured at a 4× magnification.
# as §1
# [3] = cited from earlier work
# [4] = cited from earlier work; remark: listed apart in the source
SMILES,migration rate of HeLa cells versus lipid thickness (HeLa cells [1]; channels from lipid solutions of 20 μg/ml or lower),migration rate of HeLa cells versus lipid thickness (HeLa cells [1]; lipid solutions above 20 μg/ml),"HeLa cell adhesion to lipid films compared to untreated glass (HeLa cells [2]; concentrations higher than 20 μg/ml, 2 hours of incubation)","HeLa cell adhesion to lipid films (HeLa cells [2]; films created from 20 ng (initial solution 20 μg/ml) or lower, 2 hours of incubation)","HeLa cell morphology and viability on lipid multilayers (HeLa cells [2]; lipid multilayers created from 200 ng of lipids or more, compared to thinner multilayers)","migration rate of the cells, dose dependence (HeLa cells [1]; delivered by encapsulated lipid films, over 24 hours)",collective cell migration compared to control group (HeLa cells [1]; docetaxel to lipid ratio (by mass) 1:2),collective cell migration compared to control group (HeLa cells [1]; docetaxel to lipid ratio (by mass) 1:4),collective cell migration compared to control group (HeLa cells [1]; docetaxel to lipid ratio (by mass) 1:10),HeLa cell migration (qualitative effect) (HeLa cells [1]),solubility in water [3],log P [4]
"CCCCCCCC/C=C\CCCCCCCC(=O)OCC(C[N+](C)(C)C)OC(=O)CCCCCCC/C=C\CCCCCCCC.[Cl-] (stereo not shown) [DOTAP, 1,2-dioleoyl-3-trimethylammonium-propane (chloride salt)]",not significantly (p<0.05) affected,significantly hindered,adhere significantly less (p<0.05),adherent,exhibited abnormal morphology and appeared dead,–,–,–,–,–,–,–
CC(=O)O[C@@]12CO[C@@H]1C[C@H](O)[C@@]1(C)C(=O)[C@H](O)C3=C(C)[C@@H](OC(=O)[C@H](O)[C@@H](NC(=O)OC(C)(C)C)c4ccccc4)C[C@@](O)([C@@H](OC(=O)c4ccccc4)[C@H]21)C3(C)C [docetaxel],–,–,–,–,–,reduced the migration rate of the cells dose-dependently,significantly (p<0.05) reduce collective cell migration,significantly (p<0.05) reduce collective cell migration,significantly (p<0.05) reduce collective cell migration,significantly inhibit cellular migration; also recorded: inhibited,less than 0.025 mg/L,–
C[C@H]1CCC/C=C/[C@@H]2C[C@H](O)C[C@H]2[C@H](O)/C=C/C(=O)O1 [brefeldin A],–,–,–,–,–,–,–,–,–,inhibited,–,1.61
